US20140341818A1, “SOLUBILIZED MAGNOLOL ANALOGS” (COLGATE-PALMOLIVE COMPANY, priority 2011, published 2014)
Values belong to the compound of their own block, whether it stands above or below them.

How the values were obtained:
[1] = type: physicochemical
Source text: The dimethyl isosorbide is capable of solubilizing up to 200 g per liter of neat propyl magnolol or isopropyl magnolol, up to 100 g per liter of isobutyl magnolol, or up to 50 g per liter of butyl magnolol. In certain embodiments, the amount of dimethyl isosorbide is at least 5 times the weight of the propyl magnolol or isopropyl magnolol in the composition. In certain embodiments, the amount of dimethyl isosorbide is at least 10 times the weight of isobutyl magnolol in the composition. In certain embodiments, the amount of dimethyl isosorbide is at least 20 times the weight of butyl magnolol in the composition.

[2] = Solubilizing isobutyl magnolol with other solubilizers; type: physicochemical
Source text: It was surprising that dimethyl isosorbide was able to solubilize these analogs.

SMILES: CCCCc1ccc(O)c(-c2cc(CCCC)ccc2O)c1 [butyl magnolol, 5,5′-di-n-butylbiphenyl-2,2′-diol]
amount of neat magnolol analog solubilized by dimethyl isosorbide [1]: up to 50 g per liter

amount of neat magnolol analog solubilized by dimethyl isosorbide [1]: up to 100 g per liter | ability to solubilize ([2]; solubilizer C12-15 alkyl benzoate): not able to solubilize | ability to solubilize ([2]; solubilizer PEG-7 glyceryl cocoate): not able to solubilize | ability to solubilize ([2]; solubilizer PEG-8/SMDI copolymer): not able to solubilize | ability to solubilize ([2]; solubilizer PPG-2 hydroxyethyl cocoamide): not able to solubilize | ability to solubilize ([2]; solubilizer PPG-5 laureth-5 (Eumulgin ES)): not able to solubilize | ability to solubilize ([2]; solubilizer isopropyl myristate): not able to solubilize | ability to solubilize ([2]; solubilizer poloxamer 124): not able to solubilize
SMILES: CC(C)Cc1ccc(O)c(-c2cc(CC(C)C)ccc2O)c1 [isobutyl magnolol, 5,5′-di-isobutylbiphenyl-2,2′-diol]

amount of neat magnolol analog solubilized by dimethyl isosorbide [1]: up to 200 g per liter
SMILES: CC(C)c1ccc(O)c(-c2cc(C(C)C)ccc2O)c1 [isopropyl magnolol, 5,5′-di-isopropylbiphenyl-2,2′-diol]

amount of neat magnolol analog solubilized by dimethyl isosorbide [1]: up to 200 g per liter
SMILES: CCCc1ccc(O)c(-c2cc(CCC)ccc2O)c1 [propyl magnolol, 5,5′-di-n-propylbiphenyl-2,2′-diol]
